# Experimental data from the supplement of paper PMC10307832.
# Tests used:
# Assay in all cases: relative viability (nuclei count vs DMSO), 5 days (fraction); higher = more cells survive
# Seliciclib = compound: CC[C@H](CO)Nc1nc(NCc2ccccc2)c2ncn(C(C)C)c2n1 [Seliciclib]
# How it was run: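 Lung cancer cell lines in 1536-well plates were kept overnight at 37 °C, then pinned with five library-drug doses (not always all listed) spaced by √10 on vehicle-anchored plates. After 5 days without medium change, cells were fixed, permeabilised and Hoechst-stained in one step, imaged at 4×, and nuclei were counted with MetaXpress. Viability is treated-well nuclei divided by vehicle-well nuclei, taken as the median over plates. Plates passed only with control CV below 25% and at least one doubling.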
# Seliciclib + Palbociclib = compound: CC[C@H](CO)Nc1nc(NCc2ccccc2)c2ncn(C(C)C)c2n1 [Seliciclib] + CC(=O)c1c(C)c2cnc(Nc3ccc(N4CCNCC4)cn3)nc2n(C2CCCC2)c1=O [Palbociclib] (partner 0.5 µM)
# How it was run: (§1)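 After 5 days of treatment, lung cancer cells in 1536-well plates were fixed and stained in a single step (final 0.05% Triton X-100, 1% formaldehyde, 1 ug/ml Hoechst) and their nuclei counted on 4× images. Treatment had been applied by pin tool the day after seeding as one drug alone or as a fixed anchor-drug dose with five library-drug doses (not always all listed) in √10 steps. Relative viability is the nuclei count of treated wells divided by that of vehicle wells, and values are medians of duplicate plates.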
# Seliciclib + Foretinib = compound: CC[C@H](CO)Nc1nc(NCc2ccccc2)c2ncn(C(C)C)c2n1 [Seliciclib] + COc1cc2c(Oc3ccc(NC(=O)C4(C(=O)Nc5ccc(F)cc5)CC4)cc3F)ccnc2cc1OCCCN1CCOCC1 [Foretinib] (partner 0.25 µM)
# How it was run: as §1
# Seliciclib + OSI-027 = compound: CC[C@H](CO)Nc1nc(NCc2ccccc2)c2ncn(C(C)C)c2n1 [Seliciclib] + COc1cccc2cc(-c3nc([C@H]4CC[C@H](C(=O)O)CC4)n4ncnc(N)c34)[nH]c12 [OSI-027] (partner 0.5 µM)
# How it was run: as §1
Cell Line,relative viability (Seliciclib; 0.08 µM),relative viability (Seliciclib; 0.253 µM),relative viability (Seliciclib; 0.8 µM),relative viability (Seliciclib; 2.53 µM),relative viability (Seliciclib; 8 µM),relative viability (Seliciclib + Palbociclib; first compound 0.08 µM),relative viability (Seliciclib + Palbociclib; first compound 0.253 µM),relative viability (Seliciclib + Palbociclib; first compound 0.8 µM),relative viability (Seliciclib + Palbociclib; first compound 2.53 µM),relative viability (Seliciclib + Palbociclib; first compound 8 µM),relative viability (Seliciclib + Foretinib; first compound 0.08 µM),relative viability (Seliciclib + Foretinib; first compound 0.253 µM),relative viability (Seliciclib + Foretinib; first compound 0.8 µM),relative viability (Seliciclib + Foretinib; first compound 2.53 µM),relative viability (Seliciclib + Foretinib; first compound 8 µM),relative viability (Seliciclib + OSI-027; first compound 0.08 µM),relative viability (Seliciclib + OSI-027; first compound 0.253 µM),relative viability (Seliciclib + OSI-027; first compound 0.8 µM),relative viability (Seliciclib + OSI-027; first compound 2.53 µM),relative viability (Seliciclib + OSI-027; first compound 8 µM)
NCI-H2126,0.965,0.931,0.961,0.663,0.829,0.345,0.332,0.358,0.315,0.338,1.11,1.21,1.07,0.968,0.943,0.75,0.715,0.649,0.354,0.515
NCI-H2170,0.93,0.697,0.897,0.997,0.946,0.389,–,0.372,0.364,0.308,0.936,0.934,1.01,1.09,0.968,0.754,0.639,0.724,0.691,0.708
NCI-H2228,0.974,0.88,1.01,0.923,0.753,0.851,0.617,0.714,0.86,0.507,0.931,0.826,0.727,0.856,0.591,0.594,0.437,0.617,0.473,0.404
NCI-H2347,0.982,1.08,0.936,0.994,0.95,0.44,0.439,0.404,0.406,0.433,1.18,1.23,0.938,–,0.738,0.431,0.475,0.452,0.339,0.343
NCI-H2405,0.919,1.02,0.976,0.804,0.872,0.485,0.483,0.552,0.361,0.452,1.06,1.16,1.07,0.836,0.939,0.616,0.669,0.689,0.291,0.555
NCI-H3122,0.994,0.947,0.883,0.983,0.894,0.179,0.135,0.172,0.172,0.182,1.03,–,0.938,0.983,0.786,0.979,0.53,0.769,0.744,0.778
PC-3 [JPC-3],1.03,1.08,0.994,0.928,0.913,0.477,0.615,0.543,0.498,0.476,1.07,1.09,0.997,0.997,0.809,0.727,0.761,0.716,0.65,0.672
PC-14,0.995,1.03,1.02,0.987,0.859,0.444,0.65,0.517,0.391,0.275,0.884,0.971,0.902,0.997,0.843,0.844,0.736,0.749,0.494,0.709
RERF-LC-KJ,0.935,0.903,0.96,0.985,0.878,1,0.925,1.03,1.07,0.908,0.828,0.748,0.83,0.922,0.803,0.58,0.582,0.555,0.407,0.508
SK-LU-1,1.03,1.05,1.07,0.975,0.782,0.408,0.389,0.403,0.346,0.313,0.832,0.785,0.83,0.914,0.654,0.38,0.378,0.433,0.239,0.233
SK-MES-1,0.999,1.03,0.942,1,0.857,0.329,0.336,0.314,0.259,0.277,0.891,0.889,0.771,0.903,0.862,0.63,0.655,0.593,0.462,0.45
SW 900,0.9,0.994,1.09,0.744,0.668,0.583,0.489,0.513,0.411,0.306,0.802,0.995,0.784,0.765,0.891,0.59,0.396,0.62,0.45,0.397
SW 1573,1.03,0.989,0.888,0.913,0.757,0.332,0.315,0.368,0.361,0.292,0.879,1.01,0.946,0.65,0.739,0.606,0.491,0.728,0.598,0.466
UMC-11,0.974,0.872,1.03,0.926,0.824,0.317,0.27,0.325,0.312,0.303,1.05,0.87,1.01,0.939,0.784,0.537,0.503,0.48,0.153,0.422
